These results are taken from patent US12384770B2, “Heterocyclic compound” (Takeda Pharmaceutical Company Limited, priority 2019, dated 2025).

For the first experiment, the target named is T1, HDAC6 enzyme (Homo sapiens, UniProt Q9UBN7).
T1 construct: HDAC6 enzyme prepared by transducing full length HDAC6 gene into Sf-9 insect cells; GST; purchased SignalChem; host or cells: Sf-9 insect cells
T1 sequence (Q9UBN7 1-1215): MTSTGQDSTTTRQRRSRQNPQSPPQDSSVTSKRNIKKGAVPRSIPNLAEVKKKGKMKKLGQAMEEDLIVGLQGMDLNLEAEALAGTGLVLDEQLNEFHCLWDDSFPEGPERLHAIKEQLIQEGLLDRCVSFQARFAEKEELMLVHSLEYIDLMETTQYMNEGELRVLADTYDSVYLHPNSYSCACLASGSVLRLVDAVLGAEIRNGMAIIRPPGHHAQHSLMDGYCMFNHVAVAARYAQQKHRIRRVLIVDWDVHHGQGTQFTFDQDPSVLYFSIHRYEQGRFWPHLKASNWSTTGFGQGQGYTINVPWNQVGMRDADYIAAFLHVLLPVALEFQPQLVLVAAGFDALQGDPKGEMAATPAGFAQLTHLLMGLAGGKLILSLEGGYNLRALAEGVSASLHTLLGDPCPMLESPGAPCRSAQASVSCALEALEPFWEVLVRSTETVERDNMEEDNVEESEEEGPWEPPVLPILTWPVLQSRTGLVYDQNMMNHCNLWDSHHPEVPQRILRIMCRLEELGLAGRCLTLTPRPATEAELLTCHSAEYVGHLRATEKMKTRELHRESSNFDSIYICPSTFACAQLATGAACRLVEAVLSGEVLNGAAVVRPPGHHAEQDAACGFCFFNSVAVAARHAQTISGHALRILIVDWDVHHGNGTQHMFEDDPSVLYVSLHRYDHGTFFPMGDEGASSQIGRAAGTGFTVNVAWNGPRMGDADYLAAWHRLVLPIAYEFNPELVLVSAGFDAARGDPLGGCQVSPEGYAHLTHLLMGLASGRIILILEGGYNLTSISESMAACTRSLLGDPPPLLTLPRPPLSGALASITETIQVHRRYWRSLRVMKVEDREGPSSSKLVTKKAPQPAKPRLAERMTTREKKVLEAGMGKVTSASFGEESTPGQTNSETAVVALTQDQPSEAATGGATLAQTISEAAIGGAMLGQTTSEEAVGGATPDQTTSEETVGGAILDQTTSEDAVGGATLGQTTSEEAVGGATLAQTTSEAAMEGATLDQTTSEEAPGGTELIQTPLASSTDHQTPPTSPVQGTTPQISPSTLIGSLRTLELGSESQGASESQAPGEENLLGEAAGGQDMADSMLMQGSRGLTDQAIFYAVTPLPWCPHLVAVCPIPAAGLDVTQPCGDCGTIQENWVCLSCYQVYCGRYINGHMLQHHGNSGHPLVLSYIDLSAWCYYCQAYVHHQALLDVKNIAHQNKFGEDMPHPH
The experiment can be described thus: HDAC6 enzyme inhibitory assay (HDAC-Glo I/II Assay kit). Format: biochemical. The following applies: wells without enzyme = 100% inhibition. On the procedure:
Experimental Example 1 HDAC6 Enzyme Inhibitory Assay
HDAC6 enzyme prepared by transducing full length HDAC6 gene into Sf-9 insect cells and purifying by GST affinity column were purchased from SignalChem. Using this enzyme, HDAC6 enzyme inhibitory activity of the compound of the present invention were evaluated. Enzymes were used after preserved at −70° C. HDAC6 enzyme inhibitory activity of the compound of the present invention was measured using HDAC-Glo™ I/II Assay kit (Promega) according to the following experimental method. The test compound diluted with assay buffer (24 mM Tris-HCl (pH 7.5), 1 mM MgCl2, 0.35 mM KCl, 135 mM NaCl, 0.6 mM Glutathione, 0.01% Tween-20) was added to a 384-well plate by each 2 μL. Then, HDAC6 enzyme solution diluted with assay buffer was added thereto by each 4 μL, and the plate was incubated at room temperature for 60 min. After incubated, HDAC substrate-Developer solution prepared according to Promega protocol attached to the assay kit was added to the 384-well plate by each 2 μL, and the enzyme reaction was started. After reacting at room temperature for 20 min, luminescence level was measured using plate reader Envision (PerkinElmer). The inhibitory activity of each compound of Example was calculated as a relative activity value when luminescence level in wells without enzyme is considered as 100% inhibition.
Regarding `O=C1c2cc(-c3nnc(C(F)F)o3)ccc2CN1[C@H](c1cnccn1)[C@@H](O)c1cccc(F)c1` (single isomer, unassigned) [Example 101, 6-[5-(difluoromethyl)-1,3,4-oxadiazol-2-yl]-2-[(1R*,2S*)-2-(3-fluorophenyl)-2-hydroxy-1-(pyrazin-2-yl)ethyl]-2,3-dihydro-1H-isoindol-1-one], the “HDAC6 inhibitory rate (%) (10 μM)” value is 100%.
As to `O=C1c2cc(-c3nnc(C(F)F)o3)ccc2CN1[C@H](c1ccc(F)cc1)[C@@H](O)c1ccc(F)nc1` (single isomer, unassigned) [Example 132, 6-[5-(difluoromethyl)-1,3,4-oxadiazol-2-yl]-2-[(1R*,2S*)-1-(4-fluorophenyl)-2-(6-fluoropyridin-3-yl)-2-hydroxyethyl]-2,3-dihydro-1H-isoindol-1-one], the “HDAC6 inhibitory rate (%) (10 μM)” value stood at 99%.
Turning to `O=C1c2cc(-c3nnc(C(F)F)o3)ccc2CN1[C@H](c1cnccn1)[C@@H](O)c1cccc(Cl)c1` (single isomer, unassigned) [Example 92, 2-[(1R*,2S*)-2-(3-chlorophenyl)-2-hydroxy-1-(pyrazin-2-yl)ethyl]-6-[5-(difluoromethyl)-1,3,4-oxadiazol-2-yl]-2,3-dihydro-1H-isoindol-1-one], the “HDAC6 inhibitory rate (%) (10 μM)” value amounted to 100%.
Regarding `O=C1c2cc(-c3nnc(C(F)F)o3)ccc2CN1[C@H](c1cnccn1)[C@@H](O)c1ccc(F)cc1` (single isomer, unassigned) [Example 99, 6-[5-(difluoromethyl)-1,3,4-oxadiazol-2-yl]-2-[(1R*,2S*)-2-(4-fluorophenyl)-2-hydroxy-1-(pyrazin-2-yl)ethyl]-2,3-dihydro-1H-isoindol-1-one], the “HDAC6 inhibitory rate (%) (10 μM)” value is on record as 100%.

The experiment is the same for the next values; noted with them: wells without enzyme = 100% inhibition, 10 µM.
As for `O=C1c2cc(-c3nnc(C(F)F)o3)ccc2CN1[C@H](c1ncccn1)[C@@H](O)c1ccc(F)c(F)c1` (single isomer, unassigned) [Example 95, 6-[5-(difluoromethyl)-1,3,4-oxadiazol-2-yl]-2-[(1R*,2S*)-2-(3,4-difluorophenyl)-2-hydroxy-1-(pyrimidin-2-yl)ethyl]-2,3-dihydro-1H-isoindol-1-one], the “HDAC6 inhibitory rate (%) (10 μM)” value turned out to be 99%.

The experiment is the same for the next values; noted with them: wells without enzyme = 100% inhibition, read-out: HDAC6 inhibitory rate (%) (10 μM).
On to `O=C1c2cc(-c3nnc(C(F)F)o3)ccc2CN1[C@@H](c1ccccn1)[C@H](O)c1ccc(F)cn1` [Example 4, 6-[5-(difluoromethyl)-1,3,4-oxadiazol-2-yl]-2-[(1S,2S)-2-(5-fluoropyridin-2-yl)-2-hydroxy-1-(pyridin-2-yl)ethyl]-2,3-dihydro-1H-isoindol-1-one], for which the inhibition at 10 µM stood at 100%.
Same read-out and setting: for `O=C1c2cc(-c3nnc(C(F)F)o3)ccc2CN1[C@H](C1CC1)[C@@H](O)c1ccc(F)cn1` [Example 57, 2-[(1R,2R)-1-cyclopropyl-2-(5-fluoropyridin-2-yl)-2-hydroxyethyl]-6-[5-(difluoromethyl)-1,3,4-oxadiazol-2-yl]-2,3-dihydro-1H-isoindol-1-one] the value was 100%; for `O=C1c2cc(-c3nnc(C(F)F)o3)ccc2CN1[C@H](C1CCOCC1)[C@@H](O)c1cccc(Cl)c1` (single isomer, unassigned) [Example 70, 2-[(1R*,2S*)-2-(3-chlorophenyl)-2-hydroxy-1-(oxan-4-yl)ethyl]-6-[5-(difluoromethyl)-1,3,4-oxadiazol-2-yl]-2,3-dihydro-1H-isoindol-1-one], 101%; for `O=C1c2cc(-c3nnc(C(F)F)o3)ccc2CN1[C@H](c1cccc(F)n1)[C@@H](O)c1ccccn1` (single isomer, unassigned) [Example 75, 6-[5-(difluoromethyl)-1,3,4-oxadiazol-2-yl]-2-[(1R*,2R*)-1-(6-fluoropyridin-2-yl)-2-hydroxy-2-(pyridin-2-yl)ethyl]-2,3-dihydro-1H-isoindol-1-one], 99%.
Take `O=C1c2cc(-c3nnc(C(F)F)o3)ccc2CN1[C@H](c1cccnn1)[C@@H](O)c1cccc(Cl)c1` (single isomer, unassigned) [Example 122, 2-[(1R*,2S*)-2-(3-chlorophenyl)-2-hydroxy-1-(pyridazin-3-yl)ethyl]-6-[5-(difluoromethyl)-1,3,4-oxadiazol-2-yl]-2,3-dihydro-1H-isoindol-1-one]: the inhibition at 10 µM turned out to be 100%.
With `O=C1c2cc(-c3nnc(C(F)F)o3)ccc2CN1[C@H](c1ccccn1)[C@@H](O)c1cccc(F)c1` (single isomer, unassigned) [Example 61, 6-[5-(difluoromethyl)-1,3,4-oxadiazol-2-yl]-2-[(1R*,2S*)-2-(3-fluorophenyl)-2-hydroxy-1-(pyridin-2-yl)ethyl]-2,3-dihydro-1H-isoindol-1-one], the inhibition at 10 µM stood at 100%.
As to `O=C1c2cc(-c3nnc(C(F)F)o3)ccc2CN1[C@H](c1ccc(F)cc1)[C@H](O)c1cccc(F)c1` (racemic) [Example 147, 6-[5-(difluoromethyl)-1,3,4-oxadiazol-2-yl]-2-[(1RS,2RS)-2-(3-fluorophenyl)-1-(4-fluorophenyl)-2-hydroxyethyl]-2,3-dihydro-1H-isoindol-1-one], the inhibition at 10 µM came to 99%.
With `O=C1c2cc(-c3nnc(C(F)F)o3)ccc2CN1[C@H](c1ccccn1)[C@@H](O)c1cccc(F)n1` [Example 7, 6-[5-(difluoromethyl)-1,3,4-oxadiazol-2-yl]-2-[(1R,2R)-2-(6-fluoropyridin-2-yl)-2-hydroxy-1-(pyridin-2-yl)ethyl]-2,3-dihydro-1H-isoindol-1-one], the inhibition at 10 µM was 102%.
`O=C1c2cc(-c3nnc(C(F)F)o3)ccc2CN1[C@H](C1CCOCC1)[C@H](O)c1ccc(F)cc1` [Example 148, 6-[5-(difluoromethyl)-1,3,4-oxadiazol-2-yl]-2-[(1R,2R)-2-(4-fluorophenyl)-2-hydroxy-1-(oxan-4-yl)ethyl]-2,3-dihydro-1H-isoindol-1-one]: the inhibition at 10 µM worked out at 101%.
The same measure, in the same setting: for `O=C1c2cc(-c3nnc(C(F)F)o3)ccc2CN1[C@H](c1ccccc1)[C@@H](O)c1cccc(F)c1` (racemic) [Example 23, 6-[5-(difluoromethyl)-1,3,4-oxadiazol-2-yl]-2-[(1RS,2SR)-2-(3-fluorophenyl)-2-hydroxy-1-phenylethyl]-2,3-dihydro-1H-isoindol-1-one] the value was 100%.
With `O=C1c2cc(-c3nnc(C(F)F)o3)ccc2CN1[C@H](C1CC1)[C@H](O)c1ccc(F)cc1` [Example 137, 2-[(1R,2R)-1-cyclopropyl-2-(4-fluorophenyl)-2-hydroxyethyl]-6-[5-(difluoromethyl)-1,3,4-oxadiazol-2-yl]-2,3-dihydro-1H-isoindol-1-one], the inhibition at 10 µM was 100%.
Consider `O=C1c2cc(-c3nnc(C(F)F)o3)ccc2CN1[C@H](c1ccc(F)nc1)[C@@H](O)c1ccc(F)cc1` (single isomer, unassigned) [Example 34, 6-[5-(difluoromethyl)-1,3,4-oxadiazol-2-yl]-2-[(1R*,2S*)-2-(4-fluorophenyl)-1-(6-fluoropyridin-3-yl)-2-hydroxyethyl]-2,3-dihydro-1H-isoindol-1-one], for which the inhibition at 10 µM is 100%.
Still for that read-out and setting: for `O=C1c2cc(-c3nnc(C(F)F)o3)ccc2CN1[C@H](c1ccccn1)[C@@H](O)c1ccccc1` (single isomer, unassigned) [Example 102, 6-[5-(difluoromethyl)-1,3,4-oxadiazol-2-yl]-2-[(1R*,2S*)-2-hydroxy-2-phenyl-1-(pyridin-2-yl)ethyl]-2,3-dihydro-1H-isoindol-1-one] the value was 100%.
